Test results reported in PubChem BioAssay (NCI).
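Growth conditions: 96-well plates. Treatment: test compound, 48 hours, 5 concentrations. Analysis: linear interpolation between bracketing concentrations; unreached endpoints set to highest concentration. GI50 marks 50% less growth. At the TGI there is no net growth.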

Assays:
Assay in all cases: NCI tumour cell line growth inhibition, 48 h
[1] = test system: EKVX NSCLC
[2] = test system: RXF 393 renal
[3] = test system: HT29 colon
[4] = test system: SK-OV-3 ovarian
[5] = test system: HL-60(TB) leukemia
[6] = test system: MOLT-4 leukemia
[7] = test system: OVCAR-8 ovarian
[8] = test system: SW-620 colon
[9] = test system: NCI-H23 lung
[10] = test system: SNB-75 CNS
[11] = test system: BT-549 breast
[12] = test system: UACC-62 melanoma
[13] = test system: HOP-62 NSCLC
[14] = test system: LOX IMVI melanoma
[15] = test system: IGROV1 ovarian
[16] = test system: CAKI-1 renal
[17] = test system: A549 NSCLC
[18] = test system: COLO 205 colon
[19] = test system: SN12C renal
[20] = test system: HCT-116 colon
[21] = test system: SF-539 CNS
[22] = test system: CCRF-CEM leukemia
[23] = test system: ACHN renal
[24] = test system: UO-31 renal
[25] = test system: NCI-H522 lung
[26] = test system: A498 renal
[27] = test system: MALME-3M melanoma
[28] = test system: SF-295 CNS
[29] = test system: K-562 leukemia
[30] = test system: TK-10 renal
[31] = test system: MDA-MB-468 breast
[32] = test system: HS 578T breast
[33] = test system: NCI-H226 lung
[34] = test system: NCI/ADR-RES ovarian
[35] = test system: KM12 colon
[36] = test system: UACC-257 melanoma
[37] = test system: SK-MEL-5 melanoma
[38] = test system: M14 melanoma
[39] = test system: RPMI-8226 leukemia
[40] = test system: SF-268 CNS
[41] = test system: HOP-92 NSCLC
[42] = test system: MDA-MB-435
[43] = test system: OVCAR-4 ovarian
[44] = test system: OVCAR-3 ovarian
[45] = test system: SK-MEL-28 melanoma
[46] = test system: PC-3 prostate
[47] = test system: U251 CNS
[48] = test system: 786-0 renal
[49] = test system: DU-145 prostate
[50] = test system: MCF7 breast
[51] = test system: SK-MEL-2 melanoma
[52] = test system: SR leukemia
[53] = test system: T-47D breast
[54] = test system: HCT-15 colon
[55] = test system: OVCAR-5 ovarian
[56] = test system: SNB-19 CNS
[57] = test system: HCC-2998 colon
[58] = test system: NCI-H460 lung
[59] = test system: MDA-MB-231 breast

O=C(CSc1nc2ccccc2c(=O)n1-c1ccc(Cl)cc1)Nc1ccc(-c2nc3ccccc3[nH]2)cc1
GI50 [1]: 3.95 µM
TGI [1]: 14.8 µM
GI50 [2]: 2.09 µM
TGI [2]: 5.31 µM
GI50 [3]: 2.1 µM
TGI [3]: 4.46 µM
GI50 [4]: 10.2 µM
TGI [4]: 21.9 µM
GI50 [5]: 6.92 µM
TGI [5]: 21.7 µM
GI50 [6]: 3.47 µM
TGI [6]: 18.1 µM
GI50 [7]: 1.83 µM
TGI [7]: 3.66 µM
GI50 [8]: 1.84 µM
TGI [8]: 3.63 µM
GI50 [9]: 2.24 µM
TGI [9]: 5.89 µM
GI50 [10]: 1.71 µM
TGI [10]: 6.04 µM
GI50 [11]: 5.33 µM
TGI [11]: 17.5 µM
GI50 [12]: 1.99 µM
TGI [12]: 4.59 µM
GI50 [13]: 2 µM
TGI [13]: 4.11 µM
GI50 [14]: 1.55 µM
TGI [14]: 2.89 µM
GI50 [15]: 3.04 µM
TGI [15]: 12.5 µM
GI50 [16]: 4.51 µM
TGI [16]: 15.6 µM
GI50 [17]: 1.57 µM
TGI [17]: 3.01 µM
GI50 [18]: 2.52 µM
TGI [18]: 8.14 µM
GI50 [19]: 1.73 µM
TGI [19]: 3.3 µM
GI50 [20]: 1.91 µM
TGI [20]: 3.65 µM
GI50 [21]: 2.11 µM
TGI [21]: 4.89 µM
GI50 [22]: 4.39 µM
TGI [22]: 19.5 µM
GI50 [23]: 3.28 µM
TGI [23]: 10.7 µM
GI50 [24]: 2.03 µM
TGI [24]: 5.4 µM
GI50 [25]: 1.95 µM
TGI [25]: 4.54 µM
GI50 [26]: 15.9 µM
TGI [26]: 29.3 µM
GI50 [27]: 1.96 µM
TGI [27]: 4.47 µM
GI50 [28]: 3.3 µM
TGI [28]: 11.8 µM
GI50 [29]: 3.02 µM
TGI [29]: 11.5 µM
GI50 [30]: 1.85 µM
TGI [30]: 3.64 µM
GI50 [31]: 1.9 µM
TGI [31]: 4.7 µM
GI50 [32]: 2.12 µM
TGI [32]: 4.82 µM
GI50 [33]: 9 µM
TGI [33]: 22.5 µM
GI50 [34]: 2.49 µM
TGI [34]: 7.35 µM
GI50 [35]: 10.9 µM
TGI [35]: 40 µM
GI50 [36]: 1.94 µM
TGI [36]: 4.55 µM
GI50 [37]: 3.62 µM
TGI [37]: 12.8 µM
GI50 [38]: 2.48 µM
TGI [38]: 7.06 µM
GI50 [39]: 2.78 µM
TGI [39]: 10.1 µM
GI50 [40]: 3.67 µM
TGI [40]: 15.7 µM
GI50 [41]: 1.66 µM
TGI [41]: 5.33 µM
GI50 [42]: 2.05 µM
TGI [42]: 4.53 µM
GI50 [43]: 1.88 µM
TGI [43]: 3.94 µM
GI50 [44]: 2.05 µM
TGI [44]: 4.3 µM
GI50 [45]: 1.82 µM
TGI [45]: 3.43 µM
GI50 [46]: 3.01 µM
TGI [46]: 10.9 µM
GI50 [47]: 1.84 µM
TGI [47]: 3.23 µM
GI50 [48]: 1.88 µM
TGI [48]: 3.69 µM
GI50 [49]: 2.12 µM
TGI [49]: 4.76 µM
GI50 [50]: 1.31 µM
TGI [50]: 2.85 µM
GI50 [51]: 3.06 µM
TGI [51]: 11.9 µM
GI50 [52]: 1.42 µM
TGI [52]: 7.77 µM
GI50 [53]: 1.78 µM
TGI [53]: 3.56 µM
GI50 [54]: 1.57 µM
TGI [54]: 3.77 µM
GI50 [55]: 3.12 µM
TGI [55]: 13.7 µM
GI50 [56]: 2.22 µM
TGI [56]: 5.28 µM
GI50 [57]: 3.12 µM
TGI [57]: 11.6 µM
GI50 [58]: 1.77 µM
TGI [58]: 3.38 µM
GI50 [59]: 1.91 µM
TGI [59]: 3.86 µM

COc1ccc(C(=O)/C=C/c2cc(F)cc(C(F)(F)F)c2)cc1S(N)(=O)=O
GI50 [1]: 5.07 µM
TGI [1]: 18.3 µM
GI50 [2]: 3.97 µM
TGI [2]: 16.1 µM
GI50 [4]: 15.7 µM
TGI [4]: 31.8 µM
GI50 [5]: 2.33 µM
TGI [5]: 8.4 µM
GI50 [6]: 2.44 µM
TGI [6]: 9.1 µM
GI50 [7]: 3.21 µM
TGI [7]: 11.4 µM
GI50 [8]: 1.81 µM
TGI [8]: 3.55 µM
GI50 [9]: 2.23 µM
TGI [9]: 5.48 µM
GI50 [10]: 2.45 µM
TGI [10]: 13.2 µM
GI50 [11]: 6.4 µM
TGI [11]: 19.5 µM
GI50 [12]: 3.28 µM
TGI [12]: 13.6 µM
GI50 [13]: 7.34 µM
TGI [13]: 22.2 µM
GI50 [14]: 1.42 µM
TGI [14]: 2.72 µM
GI50 [15]: 3.15 µM
TGI [15]: 11.6 µM
GI50 [16]: 4.65 µM
TGI [16]: 17.7 µM
GI50 [17]: 4.3 µM
TGI [17]: 23.1 µM
GI50 [18]: 3.79 µM
TGI [18]: 13.2 µM
GI50 [19]: 1.88 µM
TGI [19]: 4.59 µM
GI50 [20]: 1.58 µM
TGI [20]: 3.39 µM
GI50 [21]: 1.73 µM
TGI [21]: 3.17 µM
GI50 [22]: 1.5 µM
TGI [22]: 6.79 µM
GI50 [23]: 1.72 µM
TGI [23]: 3.28 µM
GI50 [24]: 1.94 µM
TGI [24]: 5.1 µM
GI50 [25]: 1.9 µM
TGI [25]: 3.98 µM
GI50 [26]: 13.9 µM
TGI [26]: 26.8 µM
GI50 [27]: 12.1 µM
TGI [27]: 24.7 µM
GI50 [28]: 3.62 µM
TGI [28]: 13.4 µM
GI50 [29]: 2.05 µM
TGI [29]: > 100 µM
GI50 [30]: 4.69 µM
TGI [30]: 18.5 µM
GI50 [31]: 1.66 µM
TGI [31]: 3.34 µM
GI50 [32]: 15.9 µM
TGI [32]: 54.9 µM
GI50 [33]: 8.55 µM
TGI [33]: 23.6 µM
GI50 [34]: 2.16 µM
TGI [34]: 5.44 µM
GI50 [35]: 1.96 µM
TGI [35]: 4.08 µM
GI50 [36]: 11.3 µM
TGI [36]: 25.8 µM
GI50 [37]: 5.52 µM
TGI [37]: 17.9 µM
GI50 [38]: 3.14 µM
TGI [38]: 11.2 µM
GI50 [39]: 2.13 µM
TGI [39]: 7.47 µM
GI50 [40]: 12 µM
TGI [40]: 43.3 µM
GI50 [41]: 6.32 µM
TGI [41]: 21.4 µM
GI50 [42]: 2.02 µM
TGI [42]: 4.91 µM
GI50 [43]: 5.86 µM
TGI [43]: 18.7 µM
GI50 [44]: 3.62 µM
TGI [44]: 11.9 µM
GI50 [45]: 2.63 µM
TGI [45]: 7.2 µM
GI50 [46]: 2.48 µM
TGI [46]: 7.3 µM
GI50 [47]: 1.75 µM
TGI [47]: 3.79 µM
GI50 [48]: 1.84 µM
TGI [48]: 3.79 µM
GI50 [49]: 12 µM
TGI [49]: 25 µM
GI50 [50]: 1.69 µM
TGI [50]: 4.42 µM
GI50 [51]: 15.5 µM
TGI [51]: 31.2 µM
GI50 [53]: 11 µM
TGI [53]: 25.8 µM
GI50 [54]: 1.59 µM
TGI [54]: 3.39 µM
GI50 [55]: 7.88 µM
TGI [55]: 20.6 µM
GI50 [56]: 3.07 µM
TGI [56]: 11.3 µM
GI50 [57]: 1.98 µM
TGI [57]: 3.71 µM
GI50 [58]: 3.41 µM
TGI [58]: 11.8 µM
GI50 [59]: 2.06 µM
TGI [59]: 4.81 µM
